Common to all, as to type: in vivo
Test [1] concerns Annual bluegrass. As to the kind of experiment: Pre-emergence herbicide test. The following applies: read-out: % plant inhibition (Anbg); for inhibition at 1120 g/ha: 1.12 kg/ha; for inhibition at 11210 g/ha: 11.21 kg/ha. Here is the method:
(§1) The tests for pre-emergence herbicide activity are conducted as follows:
(§2) Topsoil is placed in an aluminum pan and compacted to a depth of 0.95 to 1.27 cm from the top of the pan. On the top of the soil is placed a predetermined number of seeds of each of several monocotyledonous and dicotyledonous annual plant species and/or vegetative propagules of various perennial plant species. A known amount of the active ingredient dissolved or suspended in an organic solvent, e.g., acetone, or water as carrier is then applied directly to the seed bed, which is then covered with a layer of untreated topsoil to level fill the pan. After treatment, the pans are moved to a greenhouse bench where they are watered from below as needed to give adequate moisture for germination and growth.
(§3) Approximately 10-14 days (usually 11 days) after seeding and treating, the pans are observed and the results (% inhibition) are recorded.
(§4) Tables 7 and 7A below summarize the results of the pre-emergence herbicidal activity tests of compounds of this invention in weeds. The herbicidal rating shown in these tables is the percent inhibition of each plant species. The plant species usually regarded as weeds which are utilized in one set of tests, the data for which are shown in the tables, are identified by letter headings above the columns in accordance with the following legend: […]

Test [2] relates to Barnyardgrass. Description: Pre-emergence herbicide test. The conditions noted are these: Echinochloa crus-galli, read-out: % plant inhibition (Bygr); for inhibition at 1120 g/ha: 1.12 kg/ha; for inhibition at 11210 g/ha: 11.21 kg/ha. The procedure: as §1, §2, §3, §4
Test [3] concerns Cocklebur. As to the kind of experiment: Pre-emergence herbicide test. The conditions noted are these: Xanthium strumarium, read-out: % plant inhibition (Cobu); for inhibition at 1120 g/ha: 1.12 kg/ha; for inhibition at 11210 g/ha: 11.21 kg/ha. Here is the method: as §1, §2, §3, §4
Test [4] concerns Downy Brome. As to the kind of experiment: Pre-emergence herbicide test. The following applies: Bromus tectorum, read-out: % plant inhibition (Dobr); for inhibition at 1120 g/ha: 1.12 kg/ha; for inhibition at 11210 g/ha: 11.21 kg/ha. The procedure:
as §1, §2, §3, §4

The subject of test [5] is Indian Mustard. Description: Pre-emergence herbicide test. The following applies: Brassica juncea, read-out: % plant inhibition (Inmu); for inhibition at 1120 g/ha: 1.12 kg/ha; for inhibition at 11210 g/ha: 11.21 kg/ha. The procedure:
as §1, §2, §3, §4

The test system of test [6] is Morningglory. Description: Pre-emergence herbicide test. The following applies: Ipomoea, read-out: % plant inhibition (Mogl); for inhibition at 1120 g/ha: 1.12 kg/ha; for inhibition at 11210 g/ha: 11.21 kg/ha. Here is the method:
as §1, §2, §3, §4

The subject of test [7] is Seedling johnsongrass. Description: Pre-emergence herbicide test. The conditions noted are these: Sorghum halepense, read-out: % plant inhibition (Sejg); for inhibition at 1120 g/ha: 1.12 kg/ha; for inhibition at 11210 g/ha: 11.21 kg/ha. The procedure:
as §1, §2, §3, §4

Test [8] relates to Velvetleaf. Description: Pre-emergence herbicide test. The following applies: Abutilon theophrasti, read-out: % plant inhibition (Vele); for inhibition at 1120 g/ha: 1.12 kg/ha; for inhibition at 11210 g/ha: 11.21 kg/ha. The procedure: as §1, §2, §3, §4
The test system of test [9] is Wild buckwheat. Description: Pre-emergence herbicide test. The following applies: Fallopia convolvulus, read-out: % plant inhibition (Wibw); for inhibition at 1120 g/ha: 1.12 kg/ha; for inhibition at 11210 g/ha: 11.21 kg/ha. Here is the method: as §1, §2, §3, §4
The subject of test [10] is Yellow nutsedge. As to the kind of experiment: Pre-emergence herbicide test. The conditions noted are these: Cyperus, read-out: % plant inhibition (Yens); for inhibition at 1120 g/ha: 1.12 kg/ha; for inhibition at 11210 g/ha: 11.21 kg/ha. Here is the method: as §1, §2, §3, §4
Test [11] relates to Annual bluegrass. Description: Post-emergence herbicide test. The following applies: read-out: % plant inhibition (Anbg); for inhibition at 1120 g/ha: 1.12 kg/ha; for inhibition at 11210 g/ha: 11.21 kg/ha. The source says: (§5) Topsoil is placed in aluminum pans having holes in the bottom and compacted to a depth of 0.95 to 1.27 cm from the top of the pan. A predetermined number of seeds of each of several dicotyledonous and monocotyledonous annual plant species and/or vegetative propagules for the perennial plant species are placed on the soil and pressed into the soil surface. The seeds and/or vegetative propagules are covered with soil and leveled. The pans are then placed on a bench in the greenhouse and watered from below as needed. After the plants reach the desired age (two to three weeks), each pan, is removed individually to a spraying chamber and sprayed by means of an atomizer, operating at a spray pressure of 170.3 kPa (10 psig) at the application rates noted. In the spray solution is an amount of an emulsifying agent mixture to give a spray solution or suspension which contains about 0.4% by volume of the emulsifier. The spray solution or suspension contains a sufficient amount of the candidate chemical in order to give application rates of the active ingredient corresponding to those shown in Tables 8 and 8A, while applying a total amount of solution or suspension equivalent to 1870 L/Ha (200 gallons/acre). The pans were returned to the greenhouse and watered as before and the injury to the plants as compared to the control is observed at approximately 10-14 days (usually 11 days) and in some instances observed again at 24-28 days (usually 25 days) after spraying. The post-emergent herbicidal activity shown in these tables is the percent inhibition of each plant species.

Test [12] relates to Barnyardgrass. Description: Post-emergence herbicide test. The following applies: Echinochloa crus-galli, read-out: % plant inhibition (Bygr); for inhibition at 1120 g/ha: 1.12 kg/ha; for inhibition at 11210 g/ha: 11.21 kg/ha.
From the text: as §5

The subject of test [13] is Cocklebur. Description: Post-emergence herbicide test. The conditions noted are these: Xanthium strumarium, read-out: % plant inhibition (Cobu); for inhibition at 1120 g/ha: 1.12 kg/ha; for inhibition at 11210 g/ha: 11.21 kg/ha.
From the text: as §5

For test [14], the system named is Downy Brome. As to the kind of experiment: Post-emergence herbicide test. The following applies: Bromus tectorum, read-out: % plant inhibition (Dobr); for inhibition at 1120 g/ha: 1.12 kg/ha; for inhibition at 11210 g/ha: 11.21 kg/ha.
From the text: as §5

Test [15] relates to Indian Mustard. Description: Post-emergence herbicide test. The following applies: Brassica juncea, read-out: % plant inhibition (Inmu); for inhibition at 1120 g/ha: 1.12 kg/ha; for inhibition at 11210 g/ha: 11.21 kg/ha.
From the text: as §5

Test [16] concerns Morningglory. Description: Post-emergence herbicide test. The conditions noted are these: Ipomoea, read-out: % plant inhibition (Mogl); for inhibition at 1120 g/ha: 1.12 kg/ha; for inhibition at 11210 g/ha: 11.21 kg/ha.
From the text: as §5

Test [17] relates to Seedling johnsongrass. As to the kind of experiment: Post-emergence herbicide test. The conditions noted are these: Sorghum halepense, read-out: % plant inhibition (Sejg); for inhibition at 1120 g/ha: 1.12 kg/ha; for inhibition at 11210 g/ha: 11.21 kg/ha.
From the text: as §5

Test [18] has as its system Velvetleaf. As to the kind of experiment: Post-emergence herbicide test. The conditions noted are these: Abutilon theophrasti, read-out: % plant inhibition (Vele); for inhibition at 1120 g/ha: 1.12 kg/ha; for inhibition at 11210 g/ha: 11.21 kg/ha.
From the text: as §5

The test system of test [19] is Wild buckwheat. Description: Post-emergence herbicide test. The following applies: Fallopia convolvulus, read-out: % plant inhibition (Wibw); for inhibition at 1120 g/ha: 1.12 kg/ha; for inhibition at 11210 g/ha: 11.21 kg/ha.
From the text: as §5

The test system of test [20] is Yellow nutsedge. As to the kind of experiment: Post-emergence herbicide test. The conditions noted are these: Cyperus, read-out: % plant inhibition (Yens); for inhibition at 1120 g/ha: 1.12 kg/ha; for inhibition at 11210 g/ha: 11.21 kg/ha.
From the text: as §5

As for `Cn1nc(-c2cc(OCC(=O)O)c(Cl)cc2F)c(Cl)c1C(F)(F)F` [Compound 291, (2-Chloro-5-(4-chloro-1-methyl-5-(trifluoromethyl)-1H-pyrazol-3-yl)-4-fluorophenoxy)-acetic acid], the inhibition – broadly, the share of the control response that was lost under treatment – at 1120 g/ha in test [1] stood at 30%; in test [2] it was 20%; in test [3], 100%; in test [4] it was 20%; in [5], 40%; in test [6] it was 100%. Also, the inhibition at 1120 g/ha in test [7] is 40%; in [8] it was 100%; in test [9], 100%; in test [10], 30%; in [11] it was 0%; in test [12] it was 20%. For the same compound, the inhibition at 1120 g/ha was 100% in [13]; 20% in [14]; 40% in [15]; 100% in test [16]; 30% in [17]; 100% in test [18]. In addition, the inhibition at 1120 g/ha in test [19] came out at 90%; in test [20], 30%.
As for `Cn1nc(-c2cc(CC(=O)O)c(Cl)cc2F)c(Cl)c1C(F)(F)F` [Compound 111], the inhibition at 11210 g/ha in test [1] was determined as 80%; in test [2], 40%; in test [3], 90%; in test [4], 70%; in [5] it was 100%; in test [6] it was 100%. The inhibition at 11210 g/ha in test [7] was found to be 80%; in test [8] it was 100%; in test [9], 100%; in test [10], 60%; in test [11], 0%; in test [12] it was 60%. Moreover, the inhibition at 11210 g/ha in [13] was determined as 100%; in test [14], 20%; in test [15] it was 80%; in test [16], 100%; in test [17], 20%; in [18] it was 100%. For the same compound, the inhibition at 11210 g/ha in [19] was found to be 100%; in [20], 30%.
With `CCOC(=O)CON=Cc1cc(-c2nn(C)c(C(F)(F)F)c2Cl)c(F)cc1Cl` [Compound 129], the inhibition at 1120 g/ha in [1] is 0%; in test [2] it was 20%; in test [3] it was 90%; in test [4], 40%; in test [5], 90%; in [6] it was 100%. Also, the inhibition at 1120 g/ha in test [7] was 60%; in test [8], 100%; in test [9] it was 100%; in test [10], 0%; in test [11] it was 40%; in test [12], 80%. For the same compound, the inhibition at 1120 g/ha in test [13] is 100%; in test [14] it was 80%; in test [15], 90%; in test [16], 90%; in [17], 90%; in test [18], 100%. In addition, the inhibition at 1120 g/ha in [19] amounted to 100%; in [20] it was 30%.
`Cn1nc(-c2cc(C=NOCC(N)=O)c(Cl)cc2F)c(Cl)c1C(F)(F)F` [Compound 131]: the inhibition at 1120 g/ha in test [1] is 0%; in [2] it was 40%; in [3], 80%; in [4], 30%; in [5], 90%; in [6] it was 100%. Besides, the inhibition at 1120 g/ha in test [7] came to 70%; in test [8], 100%; in test [9], 100%; in test [10], 20%; in test [11] it was 20%; in test [12] it was 0%. Also, the inhibition at 1120 g/ha in [13] stood at 100%; in test [14], 20%; in test [15], 40%; in [16], 100%; in test [17], 50%; in test [18], 100%. For the same compound, the inhibition at 1120 g/ha in [19] was 100%; in test [20], 30%.
For the compound `CCS(=O)(=O)N(c1cc(-c2nn(C)c(C(F)(F)F)c2Cl)c(Cl)cc1Cl)S(=O)(=O)CC` [Compound 90], the inhibition at 11210 g/ha amounted to 10% in [1]; 10% in [2]; 0% in test [3]; 10% in test [4]; 10% in test [5]; 10% in test [6]. For the same compound, the inhibition at 11210 g/ha in [7] amounted to 50%; in [8] it was 20%; in [9], 30%; in test [10], 0%; in test [11], 10%; in [12], 0%. For the same compound, the inhibition at 11210 g/ha in test [13] was 30%; in test [14], 10%; in [15], 50%; in test [16], 60%; in [17] it was 0%; in test [18] it was 100%. Besides, the inhibition at 11210 g/ha in test [19] turned out to be 50%; in test [20], 0%.
In the case of `Cn1nc(C(F)(F)F)c(Br)c1-c1cc(F)ccc1F` [Compound 68], the inhibition at 11210 g/ha is 0% in test [1]; 10% in test [2]; 0% in test [3]; 0% in [4]; 0% in [5]; 30% in test [6]. Besides, the inhibition at 11210 g/ha in test [7] is 10%; in [8], 40%; in test [10], 30%; in [11] it was 0%; in [12] it was 0%; in [13], 0%. Further, the inhibition at 11210 g/ha in test [14], in test [15], in test [16], in [17], in test [18] and in [19] was 0% throughout. Further, the inhibition at 11210 g/ha in test [20] amounted to 0%.

The values are drawn from patent US5530126A, “Process for the preparation of substituted 6-(pyrazol-3yl)-1,4-benzoxazin-3-ones” (Monsanto Company, priority 1994, dated 1996).
